In paper PMC11157103, “Exploration of morpholine-thiophene hybrid thiosemicarbazones for the treatment of ureolytic bacterial infections via targeting urease enzyme: Synthesis, biochemical screening and computational analysis” (Frontiers in Chemistry, 2024):
Like-named read-outs stand apart in the source and are kept apart here.

Tests used:
jack bean urease = jack bean urease (Canavalia ensiformis, UniProt P07374); test: biochemical; assay type: biochemical; conditions: for fold stronger inhibitory potential than thiourea: relative to thiourea IC50
Protocol: The indophenol method with a little modification was used to determine the urease inhibitory activity of synthetic compounds (5a-i) ([Weatherburn, 1967]; [Yaseen et al., 2016]). Thiourea was used as a standard inhibitor. The assay mixture was comprised of 40 μL of buffer (100 mmol/L urea, 0.01 mol/L K2HPO4, 1 mmol/L EDTA and 0.01 mol/L […], pH 8.2), 10 μL of jack bean urease (5 U/mL) and 10 μL of test compound (1 mM). The reaction mixture was incubated for 30 min with 10 μL urea (1 mM) at 37 °C in 96-well plate. The phenol reagent (40 μL, 1% w/v phenol, 0.005% w/v sodium nitroprusside) and alkali reagent (40 μL, 0.5% w/v NaOH, 0.1% active chloride NaOCl) were added to each well and after 10 min of incubation at 37 °C, the absorbance was measured at 630 nm using a microplate reader (Bio-Tek ELx 800™, Instruments, Inc. United States). The experiments to determine the inhibitory activity of compounds were performed in triplicates. The percentage inhibition was calculated by using the formula given below. Inhibition %=100 – Absorbance of the test compound/Absorbance of the control×100
Compounds showing >50% inhibition against urease were further evaluated for the determination of IC50 values at various concentrations (0.1, 0.3, 1, 3, 10, 30, 100, 300, 1,000 μM) against jack bean urease. The experiments were performed in triplicate. IC50 values were calculated by using the non-linear curve fitting program PRISM 5.0 (GraphPad, San Diego, California, United States) to analyze the results.

urease = urease (Canavalia ensiformis, UniProt P07374); test: Kinetics analysis (Michaelis-Menten, Lineweaver-Burk plot); assay type: biochemical, jack bean; conditions: urea 25-150 mM, inhibitor 0, 1.9, 3.8, 5.7 μM
Protocol: These experiments helped in the assessment of K m and V max values to predict the mechanism of urease inhibition by plotting reciprocal of reaction rate 1/V (y-axis) against reciprocal of substrate concentrations 1/[S] (x-axis).
The rate of enzyme inhibition was accessed across numerous concentrations of substrate (25, 50, 100, 150 mM) and compound 5g (0, 1.9, 3.8, 5.7 μM) against urease. Afterwards, the data was plotted to obtain the Lineweaver-Burk plot by using GraphPad Prism version 10.2.1.

Sequence of jack bean urease (P07374 whole entry, looked up): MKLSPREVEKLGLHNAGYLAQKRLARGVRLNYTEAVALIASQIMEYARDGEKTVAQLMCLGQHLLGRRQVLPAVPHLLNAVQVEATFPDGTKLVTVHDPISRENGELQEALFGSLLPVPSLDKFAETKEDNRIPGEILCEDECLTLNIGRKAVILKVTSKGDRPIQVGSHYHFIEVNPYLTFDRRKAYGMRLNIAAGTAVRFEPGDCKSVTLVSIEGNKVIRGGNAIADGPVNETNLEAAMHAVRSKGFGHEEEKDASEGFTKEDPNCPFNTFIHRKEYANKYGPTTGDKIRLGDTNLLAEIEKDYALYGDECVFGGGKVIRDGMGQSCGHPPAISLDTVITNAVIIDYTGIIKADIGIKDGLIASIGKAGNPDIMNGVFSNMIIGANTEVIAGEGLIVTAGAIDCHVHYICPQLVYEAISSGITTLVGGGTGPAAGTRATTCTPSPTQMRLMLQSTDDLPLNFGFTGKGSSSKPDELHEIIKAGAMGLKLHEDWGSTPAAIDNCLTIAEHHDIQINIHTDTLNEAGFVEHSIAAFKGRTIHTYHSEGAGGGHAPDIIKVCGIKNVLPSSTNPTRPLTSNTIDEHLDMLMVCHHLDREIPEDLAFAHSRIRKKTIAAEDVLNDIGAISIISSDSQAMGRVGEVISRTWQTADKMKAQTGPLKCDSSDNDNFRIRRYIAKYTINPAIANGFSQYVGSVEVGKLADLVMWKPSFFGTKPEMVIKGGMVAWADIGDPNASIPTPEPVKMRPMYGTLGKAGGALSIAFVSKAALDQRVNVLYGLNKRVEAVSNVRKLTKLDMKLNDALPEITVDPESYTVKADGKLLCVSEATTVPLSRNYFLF
Sequence of urease (P07374 whole entry, looked up): as above

Row | Compound | IC50 (jack bean urease) [µM] | fold stronger inhibitory potential than thiourea (jack bean urease) [fold] | melting point [°C] | mechanism of urease inhibition (urease) | IC50 (jack bean urease; jack bean urease, indophenol method, triplicate, read-out: Urease inhibition IC50 ± SEM) [µM]
1 | S=C(NCCN1CCOCC1)NN=Cc1cccs1 [Compound 5a, N-(2-morpholinoethyl)-2-(thiophen-2-ylmethylene)hydrazinecarbothioamide] | 4.94 ± 2.7 | 4.5 | – | – | –
2 | CC(=NNC(=S)NCCN1CCOCC1)c1sccc1Cl [Compound 5e, 2-(1-(3-Chlorothiophen-2-yl)ethylidene)-N-(2-morpholinoethyl)hydrazinecarbothioamide] | 4.81 ± 1.5 | – | 116 to 118 | – | –
3 | CC(=NNC(=S)NCCN1CCOCC1)c1ccc(Cl)s1 [Compound 5g, 2-(1-(5-Chlorothiophen-2-yl)ethylidene)-N-(2-morpholinoethyl)hydrazinecarbothioamide] | 3.8 ± 1.9 | – | 148 to 150 | uncompetitive inhibition | –
4 | CC(=NNC(=S)NCCN1CCOCC1)c1cccs1 [Compound 5b, N-(2-morpholinoethyl)-2-(1-(thiophen-2-yl)ethylidene)hydrazinecarbothioamide] | 4.96 ± 3 | – | 142 to 144 | – | –
5 | CC(=NNC(=S)NCCN1CCOCC1)c1sccc1Br [Compound 5f, 2-(1-(3-Bromothiophen-2-yl)ethylidene)-N-(2-morpholinoethyl)hydrazinecarbothioamide] | 5.77 ± 0.7 | – | 124 to 126 | – | –
6 | CC(=NNC(=S)NCCN1CCOCC1)c1ccc(C)s1 [Compound 5d, 2-(1-(5-Methylthiophen-2-yl)ethylidene)-N-(2-morpholinoethyl)hydrazinecarbothioamide] | 4.6 ± 2.6 | 4.8 | 156 to 158 | – | –
7 | CC(=NNC(=S)NCCN1CCOCC1)c1ccc(Br)s1 [Compound 5h, 2-(1-(5-Bromothiophen-2-yl)ethylidene)-N-(2-morpholinoethyl)hydrazinecarbothioamide] | 3.98 ± 2.2 | – | 148 to 150 | – | –
8 | CC(=NNC(=S)NCCN1CCOCC1)c1ccc([N+](=O)[O-])s1 [Compound 5i, N-(2-morpholinoethyl)-2-(1-(5-nitrothiophen-2-yl)ethylidene)hydrazinecarbothioamide] | 3.9 ± 2.7 | – | 192 to 194 | – | –
9 | CC(=NNC(=S)NCCN1CCOCC1)c1cc(C)cs1 [Compound 5c, 2-(1-(4-Methylthiophen-2-yl)ethylidene)-N-(2-morpholinoethyl)hydrazinecarbothioamide] | 4 ± 2.4 | – | 112 to 114 | – | –
10 | NC(N)=S [Thiourea, reference compound] | – | – | – | – | 22.31 ± 0.03
